The values that follow come from publication PMC9166630, “SAR Probing of KX2-391 Provided Analogues With Juxtaposed Activity Profile Against Major Oncogenic Kinases” (Frontiers in Oncology, 2022).

What is called IC50 is the concentration at which inhibition is half-maximal.

Read-outs that look alike come from different tables or passages of the source.

One series concerns HCT116 cell line. In words: MTT anti-proliferative assay, HCT116. The settings on record: Homo sapiens, HCT-116, 72 h, maximum tested concentration 50 µM, read-out: IC50 ± SEM, HCT116. It counts as cell-based, human. As for the experimental part:
The test compounds were evaluated for anti-proliferative activity using the MTT viability assay against HCT116 cell line. Cells were seeded in triplicate in 96-well plates at a density of 10x 10^3 cells/mL in a total volume of 200 µL per well. 0.1% of DMSO was used as a vehicle control. Each well was treated with 2 µL test compounds, which had been pre-prepared as stock solutions in […] to furnish the concentration range of study, 0.1 µM to 50 µM, and re-incubated for a further 72 h at 37°C in a humidified atmosphere containing 5% CO2. The culture medium was then removed, and the cells were washed with 100 µL PBS and 100 µL MTT was added, to reach a final concentration of 1 mg/mL MTT. Cells were incubated for 3 h in darkness at 37°C. After that, MTT solution was removed and MTT was solubilized by adding […] DMSO. The cells were maintained at room temperature in darkness for 20 min to ensure thorough color diffusion before reading the absorbance using a microplate reader at 570 nm. All experiments were conducted in triplicates. Results were expressed as percentage viability relative to vehicle control (100%). Dose response curves were plotted and IC50 values (concentration of drug resulting in 50% reduction in cell survival) were obtained using the commercial software package Prism (GraphPad Software, Inc., La Jolla, CA, USA).
Background: Formazan colour is commonly taken as a measure of viable cells.

Another series has as its system NB4 leukemia cell line. In words: CellTiter-Blue cell viability assay, NB4. It counts as cell-based, human. The settings on record: CellTiter-Blue, 48 h, maximum tested concentration 20 µM, read-out: IC50 ± SEM, NB4. As for the experimental part: HL60, K562, MV4-11 and NB4 were purchased from CLS Cell Line Service GmbH (Eppelheim, Germany). All cell lines were cultured in RPMI-1640 medium supplemented with 10% fetal bovine serum (FBS) (Thermo Fisher Scientific) and 0.1% ciprofloxacin (2.5mg/ml; Cipla Limited; Mumbai, India), and were maintained at 37°C in the presence of 21% O2 and 5% CO2.
Cell viability was determined using the CellTiter®-Blue Cell Viability Assay kit (Promega, Madison, WI, USA). Approximately 10^4 cells were counted and plated in a 96-well plate in the presence of test compounds ranging from 0.01 to 10 or 20 µM in triplicate and were incubated for 48 h at 37°C in a humidified incubator. After the incubation period was complete, 20 µL of CellTiter®-Blue Cell Viability Assay reagent was added to each well and incubated for additional 2 h for the development of florescence. Florescence was measured at Ex/Em 540/590 on SpectraMax® i3 Multi-Mode microplate reader (Molecular Devices, LLC; San Jose, CA, USA) and plotted against drug concentration to determine the IC50 of the test compounds. The IC50 was obtained by non-linear regression model using GraphPad Prism 6.07 (GraphPad Software, Inc, USA).

Series [1] can be described thus: Stability in mouse liver microsomes. The settings on record: for half-life: male, CD-1, mouse liver microsomes with NADPH, 37°C, read-out: Stability MLM t1/2; for Mic. Ctrl. Mouse % 60 min: mouse liver microsomes, no NADPH added. It counts as in vitro ADME. As for the experimental part: Both mouse and human liver microsomes were obtained from Merck KGaA, (Darmstadt, Germany), Cat. No. M9441 (Mouse liver microsomes) and M0317 (Human liver microsomes). Assays were conducted in triplicate in 96-deep well polypropylene plates. […] At five time points, reaction mixture aliquots were transferred to 96-shallow well stop plates on ice containing acetonitrile with 0.1 µM propafenone. […] Standard curves for test compound were generated using 5 concentrations in triplicate that were processed as above but with zero incubation time. Stop plates were centrifuged at 2000 g for 10 min and then supernatant aliquots were transferred to a Waters Aquity® UPLC 700 µL 96-well sample plate with cap mat (Waters, Milford, MA). The amount of compound remaining in the supernatant was quantified by LC/MS/MS using a Waters Xevo TQ MS (electrospray positive mode) coupled to a Waters Aquity® UPLC (BEH column, C18). Propafenone was used as the internal standard. GraphPad® Prism v 5.04 was used for nonlinear fitting of time course data to generate t1/2 values.
On the technique in general: Liver microsomes are vesicles of endoplasmic reticulum, rich in cytochrome P450 enzymes.

For the compound `O=C(Cc1ccc(NC(=O)c2cccc(Cl)c2)cc1)NCc1ccccc1` [Compound 4e, N-(4-(2-(benzylamino)-2-oxoethyl)phenyl)-3-chlorobenzamide], the IC50 worked out at 16.8 ± 2.69 µM in the series on HCT116 cell line, 0.94 µM in the series on NB4 leukemia cell line and 0.96 µM in the series with NB4 leukemia cell line (Homo sapiens). Also, in series [1], the half-life was greater than 60 min. In series [1], the “Mic. Ctrl. Mouse % 60 min” value is 73%.
On to `O=C(Cc1ccc(NC(=O)c2cccc(Cl)n2)cc1)NCc1ccccc1` [Compound 4n, N-(4-(2-(benzylamino)-2-oxoethyl)phenyl)-6-chloropicolinamide], for which the IC50 in the series with HCT116 cell line stood at 10.8 µM. In addition, the IC50 with NB4 leukemia cell line (Homo sapiens) was 1.54 ± 0.66 µM. Also, in series [1], the half-life was determined as 3.1 min and the “Mic. Ctrl. Mouse % 60 min” value worked out at 5.0%.
